Reference: US8906909B2 (Curis, Inc., priority 2009, dated 2014)

Key:
[1] = system: HDACs (HeLa cell nuclear extracts); assay: HDAC enzymatic activity, Biomol Color de Lys system; assay type: biochemical
Procedure: (e) An In Vitro Assay which Determines the Ability of a Test Compound to Inhibit HDAC Enzymatic Activity.
HDAC inhibitory activity was assessed using the Biomol Color de Lys system (AK-500, Biomol, Plymouth Meeting, Pa.). Briefly, HeLa cell nuclear extracts were used as a source of HDACs. Different concentrations of test compounds were serially diluted in dimethylsulphoxide (DMSO) and added to HeLa cell nuclear extracts in the presence of a colorimetric artificial substrate. Final assay condition contained 50 mM Tris/Cl, pH 8.0, 137 mM NaCl, 2.7 mM KCl and 1 mM MgCl2. Reactions were carried in room temperature (25° C.) for 1 hour before addition of developer for termination. Relative enzyme activity was measured in the WALLAC Victor II 1420 microplate reader as floorescence intensity (excitation: 350-380 nm; emission: 440-460 nm). Data were analyzed using GraphPad Prism (v4.0a) with a sigmoidal dose response curve fitting for IC50 calculation.

Compound: CS(=O)(=O)N1CCN(Cc2cc3nc(-c4cccc5c4cnn5CCCCCCC(=O)NO)nc(N4CCOCC4)c3s2)CC1 [Compound 5, N-hydroxy-7-(4-(6-((4-(methylsulfonyl)piperazin-1-yl)methyl)-4-morpholinothieno[3,2-d]pyrimidin-2-yl)-1H-indazol-1-yl)heptanamide]
- IC50 [1]: < 100 nM
- melting point: 127 to 130 °C

Compound: CS(=O)(=O)N1CCN(Cc2cc3nc(-c4cccc5nn(CCCCC(=O)NO)cc45)nc(N4CCOCC4)c3s2)CC1 [Compound 7, N-hydroxy-5-(4-(6-((4-(methylsulfonyl)piperazin-1-yl)methyl)-4-morpholinothieno[3,2-d]pyrimidin-2-yl)-2H-indazol-2-yl)pentanamide]
- IC50 [1]: 100 to 1000 nM
- melting point: 146 to 169 °C

Compound: CS(=O)(=O)N1CCN(Cc2cc3nc(-c4cccc5nn(CCCCCC(=O)NO)cc45)nc(N4CCOCC4)c3s2)CC1 [Compound 8, N-hydroxy-6-(4-(6-((4-(methylsulfonyl)piperazin-1-yl)methyl)-4-morpholinothieno[3,2-d]pyrimidin-2-yl)-2H-indazol-2-yl)hexanamide]
- IC50 [1]: < 100 nM
- melting point: 124 to 125 °C

Compound: CS(=O)(=O)N1CCN(Cc2cc3nc(-c4cccc5nn(CCCCCCC(=O)NO)cc45)nc(N4CCOCC4)c3s2)CC1 [Compound 9, N-hydroxy-7-(4-(6-((4-(methylsulfonyl)piperazin-1-yl)methyl)-4-morpholinothieno[3,2-d]pyrimidin-2-yl)-2H-indazol-2-yl)heptanamide]
- IC50 [1]: < 100 nM
- melting point: 123 to 126 °C

Compound: O=C(CCCCN1CCN(Cc2cc3nc(-c4cccc5[nH]ncc45)nc(N4CCOCC4)c3s2)CC1)NO [Compound 11, 5-(4-((2-(1H-indazol-4-yl)-4-morpholinothieno[3,2-d]pyrimidin-6-yl)methyl)piperazin-1-yl)-N-hydroxypentanamide]
- melting point: 125 to 127 °C

Compound: O=C(CCCCCN1CCN(Cc2cc3nc(-c4cccc5[nH]ncc45)nc(N4CCOCC4)c3s2)CC1)NO [Compound 12, 6-(4-((2-(1H-indazol-4-yl)-4-morpholinothieno[3,2-d]pyrimidin-6-yl)methyl)piperazin-1-yl)-N-hydroxyhexanamide]
- IC50 [1]: 100 to 1000 nM
- melting point: 123 to 124 °C

Compound: O=C(CCCCCCN1CCN(Cc2cc3nc(-c4cccc5[nH]ncc45)nc(N4CCOCC4)c3s2)CC1)NO [Compound 13, 7-(4-((2-(1H-indazol-4-yl)-4-morpholinothieno[3,2-d]pyrimidin-6-yl)methyl)piperazin-1-yl)-N-hydroxyheptanamide]
- IC50 [1]: 100 to 1000 nM
- melting point: 119 to 122 °C

Compound: O=C(NO)c1cnc(N2CCN(Cc3cc4nc(-c5cccc6[nH]ncc56)nc(N5CCOCC5)c4s3)CC2)nc1 [Compound 14, 2-(4-((2-(1H-indazol-4-yl)-4-morpholinothieno[3,2-d]pyrimidin-6-yl)methyl)piperazin-1-yl)-N-hydroxypyrimidine-5-carboxamide]
- IC50 [1]: < 100 nM
- melting point: 209 to 221 °C

Compound: O=C(NO)c1cnc(N2CCC(CNCc3cc4nc(-c5cccc6[nH]ncc56)nc(N5CCOCC5)c4s3)CC2)nc1 [Compound 15, 2-(4-(((2-(1H-indazol-4-yl)-4-morpholinothieno[3,2-d]pyrimidin-6-yl)methylamino)methyl)piperidin-1-yl)-N-hydroxypyrimidine-5-carboxamide]
- IC50 [1]: < 100 nM
- melting point: 170 to 172 °C

Compound: COc1ccc(-c2nc(N3CCOCC3)c3sc(CN(C)c4ncc(C(=O)NO)cn4)cc3n2)cc1 [Compound 131, N-hydroxy-2-(((2-(4-methoxyphenyl)-4-morpholinothieno[3,2-d]pyrimidin-6-yl)methyl)(methyl)amino)pyrimidine-5-carboxamide]
- melting point: 247 °C (dec.)

Compound: CC(=O)NCc1ccc(-c2nc(N3CCOCC3)c3sc(CN(C)c4ncc(C(=O)NO)cn4)cc3n2)cc1 [Compound 136, 2-(((2-(4-(acetamidomethyl)phenyl)-4-morpholinothieno[3,2-d]pyrimidin-6-yl)methyl)(methyl)amino)-N-hydroxypyrimidine-5-carboxamide]
- melting point: 178 to 180 °C
